The test system of assay [1] is moderately differentiated laryngeal cancer cell lines (SNU-899, SNU-1066, SNU-1214). In words: MTT cell viability assay in cell culture. Type of assay: cell-based. As to the method:
MTT Assay in Cell Culture Cell viability assays were carried out with 3 moderately differentiated laryngeal cancer cell lines (SNU-899, SNU-1066, SNU-1214}. MTT reagent stock solution was prepared by dissolving 5 mg crystal in 1 ml PBS and filter sterilization. The cell culture medium was aspirated and replaced by 100 μl fresh medium and 10 μl MTT stock solution per well. The plates were incubated at 37° C. for two hours. The supernatant was removed and 100 μl DMSO was added to each well. After 15-minute incubation at room temperature in a orbital shaker the absorption at […] was detected. All measurements were performed three times using GloMax@-Multi+Microplate Multimode Reader (Promega, Germany}. All experiments were performed three times with three repetitions.

Assay [2] concerns 3D-organoids of HNSCC derived from patient populations. Put plainly: Patient derived 3D-organoids chemosensitivity testing (CellTiter-Glo luminescence cell viability assay). The class given is cell-based. As to conditions: for IC50: Homo sapiens, patient derived HNSCC 3D-organoids, 72 h incubation. On the procedure: Patient Derived 3D-Organoids (PD30} and Chemosensitivity Testing Tumor samples from patients, who have undergone resection in the ENT clinic of Otto-von-Guericke University in Magdeburg, were incubated overnight in the RPM medium containing penicillin, streptomycin and amphotericin. On the following day, the tissue samples were crushed, passed through a sieve set to produce a size fraction of between […], which were then incubated on 24-well plates at 37° C. The PD30s were incubated with Salubrinal in a 384-well culture plate for 72 h (i.e. the double population doubling time}. Thereafter, the CellTiter-Glo® luminescence cell viability assay was performed. The reagent mixture was assembled according to the manufacturer's instructions. All experiments were performed three times with three repetitions

Where two headings read alike, the source gives them in different places.

A word on the IC50: it is the concentration that gives 50% inhibition. In the case of `O=C(/C=C/c1ccccc1)NC(NC(=S)Nc1cccc2cccnc12)C(Cl)(Cl)Cl` (centres unmarked) [Salubrinal], the cytotoxicity at 50 µM in assay [1] (effect dependent on the cell line and on the dosage, highest efficacy at 50 μM after 72 hours, read-out: reduction of the viability of the cells) fell in the range of 20 to 40%. For the same molecule, the “effect on cell viability (FIG. 4)” value in assay [1] (in words) is reported as “reduction in cell viability”. Besides, the IC50 in assay [2] (read-out: IC50 range across samples, reduction of cell viability, range over samples) is 16 to 158 µM; in assay [2] (read-out: average IC50, reduction of cell viability, average over samples) it was 56 µM. The “effect on cell viability in 3D-cell culture (FIG. 5)” value in assay [2] (in words) is reported as “reduction of cell viability”.

Source of the values: patent publication US11493517B2, “Eukaryotic translation initiation factors (EIFS) as novel biomarkers in head and neck squamous cell carcinoma (HNSCC)” (Otto-von-Guericke-Universität Magdeburg, priority 2020, dated 2022).
